# Measurements from ChEMBL document CHEMBL4308846, “How Selective Are Pharmacological Inhibitors of Cell-Cycle-Regulating Cyclin-Dependent Kinases?” (J Med Chem, 2018).
# Calls of active or inactive are those of the source. No cut-off for these calls is given here.
# Legend:
# [1] = test system: HCT-116; assay: Induction of cell cycle arrest in human HCT116 cells assessed as reduction in accumulation at G1 phase 1.25 to 20 uM after 24 hrs by propidium iodide-staining based flow cytometry; assay type: functional
# [2] = test system: HCT-116; assay: Induction of cell cycle arrest in human HCT116 cells assessed as accumulation at G2/M phase 1.25 to 20 uM after 24 hrs by propidium iodide-staining based flow cytometry relative to control; assay type: functional
# [3] = target: CDK2/Cyclin A2 (Homo sapiens, UniProt P24941)
# [4] = target: Cyclin-dependent kinase 1/cyclin B1 (Homo sapiens, UniProt P06493); assay: biochemical
# [5] = target: Cyclin-dependent kinase 4/cyclin D1 (Homo sapiens, UniProt P11802); assay: biochemical
# [6] = target: Cyclin-dependent kinase 5/CDK5 activator 1 (Homo sapiens, UniProt Q00535); assay: biochemical
# [7] = target: CDK7/Cyclin H/MNAT1 (Homo sapiens, UniProt P50613); assay: biochemical
# [8] = target: CDK9/cyclin T1 (Homo sapiens, UniProt P50750); assay: biochemical
# [9] = test system: HCT-116; assay: Induction of cell cycle arrest in human HCT116 cells assessed as reduction in accumulation at G1 phase at 8.8 to 100 uM after 24 hrs by propidium iodide-staining based flow cytometry; assay type: functional; set-up: scale not given: the % may be the effect or the level left
# [10] = test system: HCT-116; assay: Induction of cell cycle arrest in CDK2 knocked out human HCT116 cells assessed as accumulation at G2/M phase at 100 to 500 nM after 24 hrs by propidium iodide-staining based flow cytometry; assay type: functional
# [11] = test system: HCT-116; assay: Induction of cell cycle arrest in CDK2 knocked out human HCT116 cells assessed as accumulation at G2/M phase at 0.8 to 5.9 after 24 hrs by propidium iodide-staining based flow cytometry; assay type: functional
# [12] = test system: HCT-116; assay: Induction of cell cycle arrest in CDK2 knocked out human HCT116 cells assessed as accumulation at G2/M phase at 0.5 to 3.9 after 24 hrs by propidium iodide-staining based flow cytometry; assay type: functional
# [13] = target: T1, Cyclin-dependent kinase 5/CDK5 activator 1 (Homo sapiens) (UniProt Q00535+Q15078); assay: Inhibition of CDK5/p25 in human HCT116 cells assessed as induction of dephosphorylation of FAK at Ser732 residue at 10 to 50 uM after 24 hrs by Western blot analysis; assay type: cell-based
# [14] = test system: HCT-116; assay: Induction of cell cycle arrest in CDK2 knocked out human HCT116 cells assessed as accumulation at G2/M phase at 13.2 to […] after 24 hrs by propidium iodide-staining based flow cytometry; assay type: functional
# [15] = target: Cyclin-dependent kinase 2/cyclin E1 (Homo sapiens, UniProt P24941); assay: biochemical
# [16] = test system: HCT-116; assay: Induction of cell cycle arrest in human HCT116 cells assessed as accumulation at G2/M phase at 19.8 to 100 uM after 24 hrs by propidium iodide-staining based flow cytometry relative to control; assay type: functional
# [17] = test system: HCT-116; assay: Induction of cell cycle arrest in human HCT116 cells assessed as reduction in accumulation at G1 phase 2.6 to 29.6 uM after 24 hrs by propidium iodide-staining based flow cytometry; assay type: functional
# [18] = test system: HCT-116; assay: Induction of cell cycle arrest in human HCT116 cells assessed as accumulation at G2/M phase 2.6 to 29.6 uM after 24 hrs by propidium iodide-staining based flow cytometry relative to control; assay type: functional
# [19] = test system: HCT-116; assay: Induction of cell cycle arrest in human HCT116 cells assessed as accumulation at G2/M phase at 1.7 to 19.8 uM after 24 hrs by propidium iodide-staining based flow cytometry; assay type: functional
# [20] = target: Cyclin-dependent kinase 9 (Homo sapiens) (UniProt P50750); assay: Inhibition of CDK9 in human HCT116 cells assessed as induction of dephosphorylation of RNA polymerase 2 S2/S5 residues at 250 to 500 nM after 24 hrs by Western blot analysis; assay type: cell-based
# [21] = test system: HCT-116; assay: Induction of cell cycle arrest in human HCT116 cells assessed as accumulation at G2/M phase at 0.05 to 0.5 uM after 24 hrs by propidium iodide-staining based flow cytometry relative to control; assay type: functional
# [22] = target: T1, Cyclin-dependent kinase 5/CDK5 activator 1 (Homo sapiens); assay: Inhibition of CDK5/p25 in human HCT116 cells assessed as induction of dephosphorylation of FAK at Ser732 residue at 250 to 500 nM after 24 hrs by Western blot analysis; assay type: cell-based
# [23] = target: Cyclin-dependent kinase 7 (Homo sapiens) (UniProt P50613); assay: Inhibition of CDK7 in human HCT116 cells assessed as induction of dephosphorylation of RNA polymerase 2 S2/S5 residues at 250 to 500 nM after 24 hrs by Western blot analysis; assay type: cell-based
# [24] = test system: HCT-116; assay: Induction of cell cycle arrest in human HCT116 cells assessed as accumulation at G2/M phase at 2.6 to 19.8 uM after 24 hrs by propidium iodide-staining based flow cytometry relative to control; assay type: functional
# [25] = target: T2, Aurora kinase A (Homo sapiens, UniProt O14965); assay: Inhibition of GST-tagged AURORA A (unknown origin) expressed in baculovirus infected Sf9 cells using MBP as substrate
# T2 sequence (O14965 whole entry): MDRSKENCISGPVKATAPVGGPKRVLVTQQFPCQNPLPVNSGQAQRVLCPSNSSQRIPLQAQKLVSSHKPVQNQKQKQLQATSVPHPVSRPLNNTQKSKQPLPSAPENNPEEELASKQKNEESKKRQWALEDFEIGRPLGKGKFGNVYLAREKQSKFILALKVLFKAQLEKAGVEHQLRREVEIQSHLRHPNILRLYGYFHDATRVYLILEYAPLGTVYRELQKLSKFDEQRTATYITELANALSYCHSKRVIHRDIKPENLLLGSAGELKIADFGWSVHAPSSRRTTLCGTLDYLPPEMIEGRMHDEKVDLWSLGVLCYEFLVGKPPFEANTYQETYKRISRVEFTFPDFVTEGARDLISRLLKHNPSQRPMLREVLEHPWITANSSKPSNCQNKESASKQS
# [26] = target: Aurora kinase B (Homo sapiens, UniProt Q96GD4); assay: biochemical
# [27] = test system: HCT-116; assay: Induction of cell cycle arrest in human HCT116 cells assessed as accumulation at G2/M phase at 3.9 to 19.8 uM after 24 hrs by propidium iodide-staining based flow cytometry relative to control; assay type: functional
# [28] = test system: HCT-116; assay: Induction of cell cycle arrest in human HCT116 cells assessed as accumulation at G2/M phase after 24 hrs by propidium iodide-staining based flow cytometry; assay type: functional
# [29] = test system: HCT-116; assay: Induction of cell cycle arrest in human HCT116 cells at 19.8 to 100 uM after 24 hrs by propidium iodide-staining based flow cytometry relative to control; assay type: functional
# [30] = test system: HCT-116; assay: Induction of cell cycle arrest in human HCT116 cells assessed as reduction in accumulation at G1 phase 19.8 to 100 uM after 24 hrs by propidium iodide-staining based flow cytometry; assay type: functional
# [31] = test system: HCT-116; assay: Induction of cell cycle arrest in CDK2 knocked out human HCT116 cells assessed as accumulation at G2/M phase at 5 to 20 uM after 24 hrs by propidium iodide-staining based flow cytometry; assay type: functional
# [32] = test system: HCT-116; assay: Induction of cell cycle arrest in human HCT116 cells assessed as accumulation at G2/M phase at 5 to 20 uM after 24 hrs by propidium iodide-staining based flow cytometry; assay type: functional
# [33] = test system: HCT-116; assay: Induction of cell cycle arrest in human HCT116 cells assessed as reduction in accumulation at G1 phase at 0.5 to 5.9 uM after 24 hrs by propidium iodide-staining based flow cytometry; assay type: functional; set-up: scale not given: the % may be the effect or the level left
# [34] = target: Cyclin-dependent kinase 4 (Homo sapiens) (UniProt P11802); assay: Inhibition of CDK4 (unknown origin) at 10 uM
# [35] = target: Cyclin-dependent kinase 6 (Homo sapiens) (UniProt Q00534); assay: Inhibition of CDK6 (unknown origin) at 10 uM
# [36] = test system: HCT-116; assay: Induction of cell cycle arrest in human HCT116 cells assessed as reduction in accumulation at G1 phase at 0.15 to […] after 24 hrs by propidium iodide-staining based flow cytometry; assay type: functional
# [37] = test system: HCT-116; assay: Induction of cell cycle arrest in human HCT116 cells assessed as accumulation at G2/M phase at 0.15 to […] after 24 hrs by propidium iodide-staining based flow cytometry relative to control; assay type: functional
# [38] = test system: HCT-116; assay: Induction of cell cycle arrest in human HCT116 cells assessed as reduction in accumulation at G1 phase at 1.7 to 19.8 uM after 24 hrs by propidium iodide-staining based flow cytometry; assay type: functional
# CDK9/cyclin T1, sequence (O60563 whole entry): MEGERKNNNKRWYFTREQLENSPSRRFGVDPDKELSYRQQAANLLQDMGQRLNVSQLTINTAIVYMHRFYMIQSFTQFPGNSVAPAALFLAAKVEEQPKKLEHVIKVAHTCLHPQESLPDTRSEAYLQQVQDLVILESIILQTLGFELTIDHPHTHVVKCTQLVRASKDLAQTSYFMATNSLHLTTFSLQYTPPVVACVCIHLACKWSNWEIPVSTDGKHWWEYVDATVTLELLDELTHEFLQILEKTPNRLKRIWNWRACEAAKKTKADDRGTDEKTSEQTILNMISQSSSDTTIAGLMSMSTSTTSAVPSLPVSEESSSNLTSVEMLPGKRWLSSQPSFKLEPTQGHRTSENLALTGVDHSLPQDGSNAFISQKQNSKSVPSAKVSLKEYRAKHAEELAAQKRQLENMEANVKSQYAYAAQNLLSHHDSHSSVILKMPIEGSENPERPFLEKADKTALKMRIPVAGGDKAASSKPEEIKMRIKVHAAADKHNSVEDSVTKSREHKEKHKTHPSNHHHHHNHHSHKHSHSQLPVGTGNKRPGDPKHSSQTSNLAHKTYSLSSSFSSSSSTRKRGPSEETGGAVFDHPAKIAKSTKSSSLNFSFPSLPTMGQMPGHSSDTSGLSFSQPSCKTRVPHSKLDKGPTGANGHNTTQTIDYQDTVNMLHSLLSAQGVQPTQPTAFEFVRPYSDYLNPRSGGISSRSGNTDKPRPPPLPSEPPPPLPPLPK
# CDK9/cyclin T1, sequence (P50750 whole entry): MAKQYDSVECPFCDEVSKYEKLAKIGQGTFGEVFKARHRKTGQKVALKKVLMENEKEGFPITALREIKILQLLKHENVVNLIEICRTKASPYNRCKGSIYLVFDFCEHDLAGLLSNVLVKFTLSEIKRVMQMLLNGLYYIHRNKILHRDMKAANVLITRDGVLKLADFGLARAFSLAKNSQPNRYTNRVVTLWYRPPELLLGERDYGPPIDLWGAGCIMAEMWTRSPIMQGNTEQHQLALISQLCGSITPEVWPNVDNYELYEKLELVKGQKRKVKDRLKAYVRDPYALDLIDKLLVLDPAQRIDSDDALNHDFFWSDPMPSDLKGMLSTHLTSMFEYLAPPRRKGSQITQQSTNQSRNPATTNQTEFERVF
# Cyclin-dependent kinase 4/cyclin D1, sequence (P11802 whole entry): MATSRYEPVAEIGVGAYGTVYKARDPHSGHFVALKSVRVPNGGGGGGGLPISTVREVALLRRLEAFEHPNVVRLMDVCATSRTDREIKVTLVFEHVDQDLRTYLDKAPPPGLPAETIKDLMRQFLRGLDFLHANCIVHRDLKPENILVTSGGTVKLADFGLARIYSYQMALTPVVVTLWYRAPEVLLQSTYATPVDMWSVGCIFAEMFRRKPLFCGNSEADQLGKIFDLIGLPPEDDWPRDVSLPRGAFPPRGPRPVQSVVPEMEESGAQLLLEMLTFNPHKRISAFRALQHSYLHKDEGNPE
# Cyclin-dependent kinase 4/cyclin D1, sequence (P24385 whole entry, further chain): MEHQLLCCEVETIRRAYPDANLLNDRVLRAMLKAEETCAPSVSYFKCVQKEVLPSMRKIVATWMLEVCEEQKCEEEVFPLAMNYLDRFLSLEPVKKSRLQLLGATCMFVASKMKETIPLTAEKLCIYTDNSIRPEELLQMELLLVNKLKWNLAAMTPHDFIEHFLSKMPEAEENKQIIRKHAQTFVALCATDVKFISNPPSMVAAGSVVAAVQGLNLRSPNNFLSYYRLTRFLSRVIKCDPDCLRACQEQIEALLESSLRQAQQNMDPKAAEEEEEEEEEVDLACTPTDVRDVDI
# Cyclin-dependent kinase 1/cyclin B1, sequence (P06493 whole entry): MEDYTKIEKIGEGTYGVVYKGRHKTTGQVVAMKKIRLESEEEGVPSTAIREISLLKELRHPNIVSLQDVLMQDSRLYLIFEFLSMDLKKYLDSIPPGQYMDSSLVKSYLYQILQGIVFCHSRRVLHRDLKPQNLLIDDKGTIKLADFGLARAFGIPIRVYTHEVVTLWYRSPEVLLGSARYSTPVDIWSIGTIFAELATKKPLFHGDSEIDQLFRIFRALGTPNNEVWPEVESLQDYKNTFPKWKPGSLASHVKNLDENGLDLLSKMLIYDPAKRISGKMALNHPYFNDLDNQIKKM
# Cyclin-dependent kinase 1/cyclin B1, sequence (P14635 whole entry, further chain): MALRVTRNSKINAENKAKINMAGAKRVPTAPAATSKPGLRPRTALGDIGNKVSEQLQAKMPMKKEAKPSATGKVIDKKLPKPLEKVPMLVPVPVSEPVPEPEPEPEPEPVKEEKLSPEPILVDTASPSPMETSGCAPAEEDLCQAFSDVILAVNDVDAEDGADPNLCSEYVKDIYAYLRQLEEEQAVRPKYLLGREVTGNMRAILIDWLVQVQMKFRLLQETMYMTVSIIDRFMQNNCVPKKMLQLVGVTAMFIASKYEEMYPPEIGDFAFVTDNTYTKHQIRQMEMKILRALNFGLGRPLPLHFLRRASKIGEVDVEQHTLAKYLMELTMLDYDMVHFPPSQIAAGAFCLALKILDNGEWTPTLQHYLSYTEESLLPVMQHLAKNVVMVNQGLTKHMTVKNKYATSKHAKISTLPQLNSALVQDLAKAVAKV
# CDK7/Cyclin H/MNAT1, sequence (P51946 whole entry): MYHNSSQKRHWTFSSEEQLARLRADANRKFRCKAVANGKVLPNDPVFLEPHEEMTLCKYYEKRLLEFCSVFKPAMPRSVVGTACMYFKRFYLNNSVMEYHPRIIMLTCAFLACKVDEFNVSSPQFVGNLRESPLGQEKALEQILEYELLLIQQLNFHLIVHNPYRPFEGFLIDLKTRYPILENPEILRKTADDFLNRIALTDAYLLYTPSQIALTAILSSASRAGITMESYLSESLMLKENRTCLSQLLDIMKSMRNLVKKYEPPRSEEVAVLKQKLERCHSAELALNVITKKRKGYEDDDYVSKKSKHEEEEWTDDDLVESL
# CDK7/Cyclin H/MNAT1, sequence (P50613 whole entry): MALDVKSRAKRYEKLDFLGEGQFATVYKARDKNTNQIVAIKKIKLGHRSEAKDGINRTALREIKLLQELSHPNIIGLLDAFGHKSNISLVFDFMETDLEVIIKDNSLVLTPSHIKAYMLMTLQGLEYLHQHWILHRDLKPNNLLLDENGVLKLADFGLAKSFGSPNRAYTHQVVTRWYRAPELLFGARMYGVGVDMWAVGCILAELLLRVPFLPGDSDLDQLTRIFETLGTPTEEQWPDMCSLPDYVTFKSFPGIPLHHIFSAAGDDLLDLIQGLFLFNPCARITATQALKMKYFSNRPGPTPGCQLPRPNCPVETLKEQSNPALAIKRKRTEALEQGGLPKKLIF
# CDK7/Cyclin H/MNAT1, sequence (P51948 whole entry, further chain): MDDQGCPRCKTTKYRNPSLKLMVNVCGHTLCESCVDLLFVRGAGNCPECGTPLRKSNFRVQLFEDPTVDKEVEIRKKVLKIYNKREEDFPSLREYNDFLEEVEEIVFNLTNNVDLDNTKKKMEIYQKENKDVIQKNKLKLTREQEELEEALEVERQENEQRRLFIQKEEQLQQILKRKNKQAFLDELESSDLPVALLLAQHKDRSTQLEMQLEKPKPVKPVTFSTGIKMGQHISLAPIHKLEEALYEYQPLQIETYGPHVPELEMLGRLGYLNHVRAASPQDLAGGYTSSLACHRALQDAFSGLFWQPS
# Cyclin-dependent kinase 5/CDK5 activator 1, sequence (Q00535 whole entry): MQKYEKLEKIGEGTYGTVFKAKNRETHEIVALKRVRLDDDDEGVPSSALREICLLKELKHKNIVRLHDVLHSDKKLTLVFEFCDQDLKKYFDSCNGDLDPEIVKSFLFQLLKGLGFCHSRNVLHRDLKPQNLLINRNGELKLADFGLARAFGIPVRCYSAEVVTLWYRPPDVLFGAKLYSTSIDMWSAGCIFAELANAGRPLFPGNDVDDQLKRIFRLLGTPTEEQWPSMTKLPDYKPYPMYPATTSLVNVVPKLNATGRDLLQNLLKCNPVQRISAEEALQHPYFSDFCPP
# Cyclin-dependent kinase 5/CDK5 activator 1, sequence (Q15078 whole entry, further chain): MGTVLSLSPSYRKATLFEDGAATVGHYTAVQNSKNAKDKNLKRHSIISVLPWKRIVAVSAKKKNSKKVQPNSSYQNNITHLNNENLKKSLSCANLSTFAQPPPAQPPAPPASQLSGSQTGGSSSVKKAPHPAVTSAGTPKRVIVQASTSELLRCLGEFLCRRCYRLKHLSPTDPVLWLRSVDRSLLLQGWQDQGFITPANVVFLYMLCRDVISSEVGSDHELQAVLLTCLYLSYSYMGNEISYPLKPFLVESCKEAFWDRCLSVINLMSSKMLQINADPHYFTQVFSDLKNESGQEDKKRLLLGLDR
# Cyclin-dependent kinase 9 (Homo sapiens), sequence (P50750 whole entry): as the sequence (P50750 whole entry) above
# T1 sequence (Q00535 whole entry): as the sequence (Q00535 whole entry) above
# T1 sequence (Q15078 99-307 partner limits assumed): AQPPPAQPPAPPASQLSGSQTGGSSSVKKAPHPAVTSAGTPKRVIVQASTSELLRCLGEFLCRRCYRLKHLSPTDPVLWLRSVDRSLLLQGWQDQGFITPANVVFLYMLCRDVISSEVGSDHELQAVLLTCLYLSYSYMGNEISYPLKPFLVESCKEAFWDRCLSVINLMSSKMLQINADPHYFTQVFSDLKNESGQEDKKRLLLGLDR
# Cyclin-dependent kinase 4 (Homo sapiens), sequence (P11802 whole entry): as the sequence (P11802 whole entry) above
# Cyclin-dependent kinase 7 (Homo sapiens), sequence (P50613 whole entry): as the sequence (P50613 whole entry) above
Structure (SMILES),IC50 [3],IC50 [4],IC50 [5],IC50 [6],IC50 [7],IC50 [8],IC50 [15],also measured
O=C1NC(=O)c2c1c1c3ccccc3[nH]c1c1[nH]c3ccccc3c21 [STAUROSPORINE AGLYCON],0.135 µM,0.964 µM,0.199 µM,0.936 µM,> 20 µM,> 20 µM,–,Activity [1]: Active; Activity [2]: >=60%
CC(C)c1cnc(NC(=O)Cc2ccccc2)s1,0.353 µM,1.7 µM,20.4 µM,0.458 µM,0.637 µM,3.4 µM,0.195 µM,Activity [9]: <=30%; Activity [10]: Active; Activity [11]: Active; Activity [12]: Active; inhibition [13]: Active; Activity [14]: Active
CC(=O)c1cnc2oc3ccc(O)cc3c2c1-c1ccccc1,> 20 µM,> 20 µM,> 20 µM,17.5 µM,> 20 µM,> 20 µM,> 20 µM,Activity [16]: inactive
O=C1NC(=O)c2c1c1c3ccccc3[nH]c1c1[nH]c3cc(Br)ccc3c21,0.185 µM,1.5 µM,0.091 µM,0.154 µM,> 20 µM,4 µM,0.229 µM,Activity [17]: Active; Activity [18]: <=30%
O=C1Nc2cc(Br)ccc2/C1=C1/Nc2ccccc2/C1=N\O [6BIO],–,–,–,–,3.5 µM,0.45 µM,–,Activity [19]: <=30%
Nc1cc(Nc2ccc(S(N)(=O)=O)cc2)ncn1,0.946 µM,5.3 µM,> 20 µM,4.4 µM,> 20 µM,> 20 µM,1.9 µM,Activity [20]: inactive
Nc1nc(Nc2ccc(S(N)(=O)=O)cc2)nn1C(=S)Nc1c(F)cccc1F,–,0.002 µM,0.059 µM,0.0002 µM,0.066 µM,0.03 µM,–,Activity [21]: >=60%; inhibition [22]: Active; inhibition [23]: inactive; inhibition [20]: inactive; Activity [10]: Active
O=C1Nc2ccccc2/C1=C\c1c(Cl)[nH]c2ccccc12,13.2 µM,6.7 µM,> 20 µM,5.8 µM,16 µM,> 20 µM,9.4 µM,Activity [24]: >=60%; IC50 [25]: > 20 µM; IC50 [26]: 15.6 µM
CCOC(=O)c1cnc2oc3ccc(O)cc3c2c1-c1ccccc1,7.1 µM,> 20 µM,> 20 µM,> 20 µM,> 20 µM,> 20 µM,14.3 µM,Activity [16]: inactive
CCn1cnc2c(Nc3cccc(Cl)c3)nc(N[C@@H]3CCCC[C@@H]3N)nc21,0.046 µM,0.147 µM,3 µM,0.026 µM,0.279 µM,1.4 µM,0.026 µM,Activity [27]: <=30%
CN(C)C(=O)c1cc2cnc(Nc3ccc(N4CCNCC4)cn3)nc2n1C1CCCC1 [RIBOCICLIB],–,–,–,> 20 µM,> 20 µM,–,–,–
COc1ccc(CNc2nc(N(CCO)CCO)nc3c2ncn3C(C)C)cc1,–,3.7 µM,> 20 µM,0.419 µM,9.2 µM,2.3 µM,–,Activity [28]: <=30%
O=C1Nc2ccc3ncsc3c2/C1=C/Nc1ccc(S(=O)(=O)Nc2ccccn2)cc1,–,0.049 µM,0.139 µM,0.007 µM,0.317 µM,–,–,Activity [28]: 30 - 60%
Nc1n[nH]c2nc3ccccc3nc12 [QUINOXALINE1],0.01 µM,9.7 µM,> 20 µM,13.7 µM,> 20 µM,14.1 µM,5.6 µM,Activity [29]: inactive
COc1ccc(OC)c2c(=S)c3ccccc3[nH]c12,> 20 µM,> 20 µM,> 20 µM,> 20 µM,> 20 µM,> 20 µM,> 20 µM,Activity [30]: Active
CNC(=O)c1nn(C)c2c1C(C)(C)Cc1cnc(Nc3ccc(N4CCN(C)CC4)cc3)nc1-2 [MILCICLIB],0.109 µM,1.2 µM,–,–,–,–,0.59 µM,Activity [28]: 30 - 60%
COc1ccc2c(c1)/C(=C/c1cnc[nH]1)C(=O)N2 [SU-9516],–,–,–,–,–,–,–,Activity [28]: 30 - 60%; Activity [31]: Active; Activity [32]: Active
CCCOc1cnc(CN/C=C2\C(=O)NC(=O)c3ccc(I)cc32)cc1O,0.071 µM,0.29 µM,0.038 µM,1.2 µM,> 20 µM,1 µM,0.501 µM,Activity [33]: <=30%; inhibition [34]: Active; inhibition [35]: Active
CN1CCN(c2ccc(Nc3ncc4cc(C#N)c(=O)n(C5CCCC5)c4n3)cc2)CC1 [NARAZACICLIB],0.055 µM,0.6 µM,0.018 µM,0.272 µM,6 µM,0.117 µM,0.377 µM,Activity [36]: Active; Activity [37]: >=60%
CCNc1cc(N[C@H]2CC[C@H](O)CC2)nc(Nc2ccc3c(ccn3Cc3ccccc3)c2)n1,–,–,–,> 10 µM,> 10 µM,> 10 µM,–,Activity [38]: Active; Activity [19]: 30 - 60%
